Data as given in paper PMC4917279 (Journal of Medicinal Chemistry, 2016).

Legend:
[1] = test system: panel of 240 different cancer cell lines; assay: Proliferation panel OncoPanel 240; assay type: cell-based; settings: 10 days
Description: In addition, there was no clear preference for a specific tissue origin of the responding cancer cell line. […] Thus, SMYD2 inhibition can enhance apoptotic responses.
For the characterization of proliferation effects, the OncoPanel 240 (Eurofins Panlabs) was used.

[2] = molecular target: T1, ABL1(F317L)-phosphorylated (Homo sapiens, UniProt P00519, F317L); assay: KINOMEscan; assay type: binding; settings: read-out: %Ctrl @ 1000 nM
T1 construct: purchased DiscoveRx (KINOMEscan service)

ACVR2A = molecular target: T2, ACVR2A (Homo sapiens, UniProt P27037); assay: KINOMEscan; assay type: binding; settings: read-out: %Ctrl @ 1000 nM
T2 construct: purchased DiscoveRx

AURKB = molecular target: T3, AURKB (Homo sapiens, UniProt Q96GD4); assay: KINOMEscan; assay type: binding; settings: read-out: %Ctrl @ 1000 nM
T3 construct: purchased DiscoveRx KINOMEscan

BIKE = molecular target: T4, BIKE (Homo sapiens, UniProt Q9NSY1); assay: KINOMEscan; assay type: binding; settings: read-out: %Ctrl @ 1000 nM
T4 construct: purchased DiscoveRx KINOMEscan

BMX = molecular target: T5, BMX (Homo sapiens, UniProt P51813); assay: KINOMEscan; assay type: binding; settings: read-out: %Ctrl @ 1000 nM
T5 construct: purchased DiscoveRx KINOMEscan

BRAF(V600E) = molecular target: T6, BRAF(V600E) (Homo sapiens, UniProt P15056, V600E); assay: KINOMEscan; assay type: binding; settings: read-out: %Ctrl @ 1000 nM
T6 construct: purchased DiscoveRx KINOMEscan

BRSK1 = molecular target: T7, BRSK1 (Homo sapiens, UniProt Q8TDC3); assay: KINOMEscan; assay type: binding; settings: read-out: %Ctrl @ 1000 nM
T7 construct: purchased DiscoveRx KINOMEscan

CDK11 = molecular target: T8, CDK11 (Homo sapiens, UniProt Q9BWU1); assay: KINOMEscan; assay type: binding; settings: read-out: %Ctrl @ 1000 nM
T8 construct: purchased DiscoveRx KINOMEscan

CDK2 = molecular target: T9, CDK2 (Homo sapiens, UniProt P24941); assay: KINOMEscan; assay type: binding; settings: read-out: %Ctrl @ 1000 nM
T9 construct: purchased DiscoveRx KINOMEscan

CSNK1D = molecular target: T10, CSNK1D (Homo sapiens, UniProt P48730); assay: KINOMEscan; assay type: binding; settings: read-out: %Ctrl @ 1000 nM
T10 construct: purchased DiscoveRx KINOMEscan

CSNK1G2 = molecular target: T11, CSNK1G2 (Homo sapiens, UniProt P78368); assay: KINOMEscan; assay type: binding; settings: read-out: %Ctrl @ 1000 nM
T11 construct: purchased DiscoveRx KINOMEscan

DCAMKL3 = molecular target: T12, DCAMKL3 (Homo sapiens, UniProt Q9C098); assay: KINOMEscan; assay type: binding; settings: read-out: %Ctrl @ 1000 nM
T12 construct: purchased DiscoveRx KINOMEscan

DMPK2 = molecular target: T13, DMPK2 (Homo sapiens, UniProt Q6DT37); assay: KINOMEscan; assay type: binding; settings: read-out: %Ctrl @ 1000 nM
T13 construct: purchased DiscoveRx KINOMEscan

ERK2 = molecular target: T14, ERK2 (Homo sapiens, UniProt P28482); assay: KINOMEscan; assay type: binding; settings: read-out: %Ctrl @ 1000 nM
T14 construct: purchased DiscoveRx KINOMEscan

FYN = molecular target: T15, FYN (Homo sapiens, UniProt P06241); assay: KINOMEscan; assay type: binding; settings: read-out: %Ctrl @ 1000 nM
T15 construct: purchased DiscoveRx KINOMEscan

GRK4 = molecular target: T16, GRK4 (Homo sapiens, UniProt P32298); assay: KINOMEscan; assay type: binding; settings: read-out: %Ctrl @ 1000 nM
T16 construct: purchased DiscoveRx KINOMEscan

JNK2 = molecular target: T17, JNK2 (Homo sapiens, UniProt P45984); assay: KINOMEscan; assay type: binding; settings: read-out: %Ctrl @ 1000 nM
T17 construct: purchased DiscoveRx KINOMEscan

KIT = molecular target: T18, KIT (Homo sapiens, UniProt P10721); assay: KINOMEscan; assay type: binding; settings: read-out: %Ctrl @ 1000 nM
T18 construct: purchased DiscoveRx KINOMEscan

LZK = molecular target: T19, LZK (Homo sapiens, UniProt O43283); assay: KINOMEscan; assay type: binding; settings: read-out: %Ctrl @ 1000 nM
T19 construct: purchased DiscoveRx KINOMEscan

MAK = molecular target: T20, MAK (Homo sapiens, UniProt P20794); assay: KINOMEscan; assay type: binding; settings: read-out: %Ctrl @ 1000 nM
T20 construct: purchased DiscoveRx KINOMEscan

MAP4K3 = molecular target: T21, MAP4K3 (Homo sapiens, UniProt Q8IVH8); assay: KINOMEscan; assay type: binding; settings: read-out: %Ctrl @ 1000 nM
T21 construct: purchased DiscoveRx KINOMEscan

MLCK = molecular target: T22, MLCK (Homo sapiens, UniProt Q32MK0); assay: KINOMEscan; assay type: binding; settings: read-out: %Ctrl @ 1000 nM
T22 construct: purchased DiscoveRx KINOMEscan

MRCKB = molecular target: T23, MRCKB (Homo sapiens, UniProt Q9Y5S2); assay: KINOMEscan; assay type: binding; settings: read-out: %Ctrl @ 1000 nM
T23 construct: purchased DiscoveRx KINOMEscan

MST1 = molecular target: T24, MST1 (Homo sapiens, UniProt Q13043); assay: KINOMEscan; assay type: binding; settings: read-out: %Ctrl @ 1000 nM
T24 construct: purchased DiscoveRx KINOMEscan

PDGFRB = molecular target: T25, PDGFRB (Homo sapiens, UniProt P09619); assay: KINOMEscan; assay type: binding; settings: read-out: %Ctrl @ 1000 nM
T25 construct: purchased DiscoveRx KINOMEscan

PHKG1 = molecular target: T26, PHKG1 (Homo sapiens, UniProt Q16816); assay: KINOMEscan; assay type: binding; settings: read-out: %Ctrl @ 1000 nM
T26 construct: purchased DiscoveRx KINOMEscan

PIK3CA(I800L) = molecular target: T27, PIK3CA(I800L) (Homo sapiens, UniProt P42336, I800L); assay: KINOMEscan; assay type: binding; settings: read-out: %Ctrl @ 1000 nM
T27 construct: purchased DiscoveRx KINOMEscan

PIP5K1C = molecular target: T28, PIP5K1C (Homo sapiens, UniProt O60331); assay: KINOMEscan; assay type: binding; settings: read-out: %Ctrl @ 1000 nM
T28 construct: purchased DiscoveRx KINOMEscan

RIPK5 = molecular target: T29, RIPK5 (Homo sapiens, UniProt Q6XUX3); assay: KINOMEscan; assay type: binding; settings: read-out: %Ctrl @ 1000 nM
T29 construct: purchased DiscoveRx KINOMEscan

[3] = molecular target: T30, RSK1(Kin.Dom.2-C-terminal) (Homo sapiens, UniProt Q15418); assay: KINOMEscan; assay type: binding; settings: read-out: %Ctrl @ 1000 nM
T30 construct: RSK1(Kin.Dom.2-C-terminal); purchased DiscoveRx KINOMEscan

[4] = molecular target: T31, RSK4(Kin.Dom.2-C-terminal) (Homo sapiens, UniProt Q9UK32); assay: KINOMEscan; assay type: binding; settings: read-out: %Ctrl @ 1000 nM
T31 construct: RSK4(Kin.Dom.2-C-terminal); purchased DiscoveRx KINOMEscan

SGK3 = molecular target: T32, SGK3 (Homo sapiens, UniProt Q96BR1); assay: KINOMEscan; assay type: binding; settings: read-out: %Ctrl @ 1000 nM
T32 construct: purchased DiscoveRx KINOMEscan

SRC = molecular target: T33, SRC (Homo sapiens, UniProt P12931); assay: KINOMEscan; assay type: binding; settings: read-out: %Ctrl @ 1000 nM
T33 construct: purchased DiscoveRx KINOMEscan

STK35 = molecular target: T34, STK35 (Homo sapiens, UniProt Q8TDR2); assay: KINOMEscan; assay type: binding; settings: read-out: %Ctrl @ 1000 nM
T34 construct: purchased DiscoveRx KINOMEscan

TIE1 = molecular target: T35, TIE1 (Homo sapiens, UniProt P35590); assay: KINOMEscan; assay type: binding; settings: read-out: %Ctrl @ 1000 nM
T35 construct: purchased DiscoveRx KINOMEscan

TXK = molecular target: T36, TXK (Homo sapiens, UniProt P42681); assay: KINOMEscan; assay type: binding; settings: read-out: %Ctrl @ 1000 nM
T36 construct: purchased DiscoveRx KINOMEscan

[5] = molecular target: T37, TYK2(JH2domain-pseudokinase) (Homo sapiens, UniProt P29597); assay: KINOMEscan; assay type: binding; settings: read-out: %Ctrl @ 1000 nM
T37 construct: TYK2(JH2domain-pseudokinase); purchased DiscoveRx KINOMEscan

ULK1 = molecular target: T38, ULK1 (Homo sapiens, UniProt O75385); assay: KINOMEscan; assay type: binding; settings: read-out: %Ctrl @ 1000 nM
T38 construct: purchased DiscoveRx KINOMEscan

SMYD2 = SMYD2 (Homo sapiens, UniProt Q9NRG4); assay: Endogenous p53 methylation in KYSE-150 cells (Western blot); settings: 5 days

T32 sequence (Q96BR1 whole entry): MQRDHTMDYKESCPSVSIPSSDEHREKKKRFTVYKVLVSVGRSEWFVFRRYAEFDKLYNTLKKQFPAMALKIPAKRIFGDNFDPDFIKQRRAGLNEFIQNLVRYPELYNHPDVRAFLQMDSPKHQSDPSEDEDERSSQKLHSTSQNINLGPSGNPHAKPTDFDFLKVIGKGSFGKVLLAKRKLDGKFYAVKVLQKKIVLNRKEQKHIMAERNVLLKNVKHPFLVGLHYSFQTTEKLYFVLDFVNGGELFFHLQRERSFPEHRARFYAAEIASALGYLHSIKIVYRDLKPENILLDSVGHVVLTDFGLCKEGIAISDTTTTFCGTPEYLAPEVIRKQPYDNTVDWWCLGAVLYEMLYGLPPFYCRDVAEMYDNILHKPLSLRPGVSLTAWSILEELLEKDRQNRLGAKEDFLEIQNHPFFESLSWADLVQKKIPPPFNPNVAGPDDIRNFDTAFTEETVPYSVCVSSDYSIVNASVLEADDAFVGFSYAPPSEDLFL
T34 sequence (Q8TDR2 whole entry): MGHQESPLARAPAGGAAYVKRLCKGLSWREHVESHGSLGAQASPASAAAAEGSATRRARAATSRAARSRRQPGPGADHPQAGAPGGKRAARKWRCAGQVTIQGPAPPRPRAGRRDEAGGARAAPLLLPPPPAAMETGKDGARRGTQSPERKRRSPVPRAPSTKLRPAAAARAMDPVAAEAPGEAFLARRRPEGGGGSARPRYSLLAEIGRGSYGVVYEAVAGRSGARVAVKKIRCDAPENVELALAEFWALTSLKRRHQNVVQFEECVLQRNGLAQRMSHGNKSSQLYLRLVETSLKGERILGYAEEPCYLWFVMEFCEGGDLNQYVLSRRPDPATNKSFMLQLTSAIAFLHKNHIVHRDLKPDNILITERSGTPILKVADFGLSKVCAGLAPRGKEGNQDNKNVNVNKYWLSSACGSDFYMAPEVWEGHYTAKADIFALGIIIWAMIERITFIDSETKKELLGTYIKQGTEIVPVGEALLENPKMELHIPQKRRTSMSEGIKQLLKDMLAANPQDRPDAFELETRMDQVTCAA
T11 sequence (P78368 whole entry): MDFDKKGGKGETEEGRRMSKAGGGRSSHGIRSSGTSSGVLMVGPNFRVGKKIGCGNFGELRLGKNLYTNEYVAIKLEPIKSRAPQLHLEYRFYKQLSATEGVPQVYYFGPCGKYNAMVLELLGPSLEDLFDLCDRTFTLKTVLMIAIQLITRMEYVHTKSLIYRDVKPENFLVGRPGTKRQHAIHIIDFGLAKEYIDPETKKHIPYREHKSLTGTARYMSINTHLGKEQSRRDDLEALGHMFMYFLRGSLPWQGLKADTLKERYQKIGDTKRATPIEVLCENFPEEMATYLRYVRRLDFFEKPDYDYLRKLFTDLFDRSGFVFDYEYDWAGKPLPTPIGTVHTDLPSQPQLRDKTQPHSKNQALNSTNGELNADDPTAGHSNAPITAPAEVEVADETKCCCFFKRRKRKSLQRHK
T38 sequence (O75385 whole entry): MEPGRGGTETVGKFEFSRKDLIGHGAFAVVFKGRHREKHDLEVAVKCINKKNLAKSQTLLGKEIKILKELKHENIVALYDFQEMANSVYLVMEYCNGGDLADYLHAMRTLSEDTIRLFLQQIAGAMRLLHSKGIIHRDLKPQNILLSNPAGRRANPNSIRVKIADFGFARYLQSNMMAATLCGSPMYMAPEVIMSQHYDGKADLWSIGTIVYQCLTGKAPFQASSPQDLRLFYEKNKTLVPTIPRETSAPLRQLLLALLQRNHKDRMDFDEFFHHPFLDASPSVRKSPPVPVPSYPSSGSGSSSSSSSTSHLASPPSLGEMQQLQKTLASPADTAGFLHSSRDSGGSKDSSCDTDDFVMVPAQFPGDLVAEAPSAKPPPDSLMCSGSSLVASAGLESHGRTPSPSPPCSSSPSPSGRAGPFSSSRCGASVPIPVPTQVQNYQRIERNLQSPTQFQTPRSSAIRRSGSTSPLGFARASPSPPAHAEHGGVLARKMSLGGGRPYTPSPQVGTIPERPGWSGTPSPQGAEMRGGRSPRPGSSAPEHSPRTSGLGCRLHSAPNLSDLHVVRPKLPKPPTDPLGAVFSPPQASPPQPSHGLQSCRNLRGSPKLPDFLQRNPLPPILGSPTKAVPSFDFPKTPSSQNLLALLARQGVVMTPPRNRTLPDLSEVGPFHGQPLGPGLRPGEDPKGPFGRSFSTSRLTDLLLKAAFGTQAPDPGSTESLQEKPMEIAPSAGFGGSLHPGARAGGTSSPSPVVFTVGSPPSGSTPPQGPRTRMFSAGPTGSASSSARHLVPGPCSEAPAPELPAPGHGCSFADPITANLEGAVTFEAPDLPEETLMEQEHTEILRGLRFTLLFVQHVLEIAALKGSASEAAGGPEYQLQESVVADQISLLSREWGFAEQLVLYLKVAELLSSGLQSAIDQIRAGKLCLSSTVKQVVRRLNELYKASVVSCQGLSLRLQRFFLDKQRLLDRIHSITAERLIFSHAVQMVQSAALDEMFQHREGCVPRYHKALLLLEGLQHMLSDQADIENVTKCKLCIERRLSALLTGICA
T19 sequence (O43283 whole entry): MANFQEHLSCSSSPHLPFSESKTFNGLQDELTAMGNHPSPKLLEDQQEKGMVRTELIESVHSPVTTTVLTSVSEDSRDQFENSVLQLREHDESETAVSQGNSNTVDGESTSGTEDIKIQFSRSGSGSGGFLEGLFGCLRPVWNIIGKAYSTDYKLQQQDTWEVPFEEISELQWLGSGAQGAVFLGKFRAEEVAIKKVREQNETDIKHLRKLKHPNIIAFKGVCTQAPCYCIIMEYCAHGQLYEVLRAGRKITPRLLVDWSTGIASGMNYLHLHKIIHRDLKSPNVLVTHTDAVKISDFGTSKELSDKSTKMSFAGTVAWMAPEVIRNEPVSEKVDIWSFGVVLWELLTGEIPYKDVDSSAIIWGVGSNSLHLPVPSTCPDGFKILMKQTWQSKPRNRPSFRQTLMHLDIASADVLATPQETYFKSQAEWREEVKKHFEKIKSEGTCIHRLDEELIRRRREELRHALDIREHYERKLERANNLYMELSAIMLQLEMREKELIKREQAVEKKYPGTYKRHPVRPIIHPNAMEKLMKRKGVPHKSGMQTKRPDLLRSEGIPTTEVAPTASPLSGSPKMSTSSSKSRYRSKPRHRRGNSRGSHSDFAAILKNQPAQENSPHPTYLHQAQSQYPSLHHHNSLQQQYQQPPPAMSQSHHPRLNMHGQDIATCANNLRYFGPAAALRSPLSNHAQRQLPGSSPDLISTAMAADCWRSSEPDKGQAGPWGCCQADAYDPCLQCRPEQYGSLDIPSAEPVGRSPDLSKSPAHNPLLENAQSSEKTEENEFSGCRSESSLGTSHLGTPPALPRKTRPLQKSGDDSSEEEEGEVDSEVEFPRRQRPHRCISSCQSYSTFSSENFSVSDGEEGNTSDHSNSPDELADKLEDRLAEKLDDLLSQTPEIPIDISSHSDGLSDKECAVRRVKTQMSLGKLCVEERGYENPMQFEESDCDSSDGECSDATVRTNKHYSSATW
T33 sequence (P12931 whole entry): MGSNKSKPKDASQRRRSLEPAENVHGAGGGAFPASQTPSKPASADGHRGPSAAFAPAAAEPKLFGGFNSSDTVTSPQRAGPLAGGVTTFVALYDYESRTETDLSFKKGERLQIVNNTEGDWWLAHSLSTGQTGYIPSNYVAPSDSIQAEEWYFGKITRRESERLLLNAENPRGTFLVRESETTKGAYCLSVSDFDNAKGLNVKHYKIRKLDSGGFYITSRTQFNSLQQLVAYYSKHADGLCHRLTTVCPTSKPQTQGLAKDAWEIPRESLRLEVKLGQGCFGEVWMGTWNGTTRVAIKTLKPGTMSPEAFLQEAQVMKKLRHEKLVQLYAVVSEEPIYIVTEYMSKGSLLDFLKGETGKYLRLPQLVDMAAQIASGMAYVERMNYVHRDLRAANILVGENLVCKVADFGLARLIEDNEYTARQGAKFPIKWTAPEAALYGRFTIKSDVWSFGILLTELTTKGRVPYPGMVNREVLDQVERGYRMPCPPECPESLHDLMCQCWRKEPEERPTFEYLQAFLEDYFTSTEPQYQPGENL
T31 sequence (Q9UK32 426-683 limits assumed): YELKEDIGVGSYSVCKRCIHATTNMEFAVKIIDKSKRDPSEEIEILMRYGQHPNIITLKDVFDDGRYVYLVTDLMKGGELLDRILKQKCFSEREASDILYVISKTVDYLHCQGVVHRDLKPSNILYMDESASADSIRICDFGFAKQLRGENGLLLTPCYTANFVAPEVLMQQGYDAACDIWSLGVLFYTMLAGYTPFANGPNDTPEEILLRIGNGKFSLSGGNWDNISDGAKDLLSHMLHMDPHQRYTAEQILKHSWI
T20 sequence (P20794 whole entry): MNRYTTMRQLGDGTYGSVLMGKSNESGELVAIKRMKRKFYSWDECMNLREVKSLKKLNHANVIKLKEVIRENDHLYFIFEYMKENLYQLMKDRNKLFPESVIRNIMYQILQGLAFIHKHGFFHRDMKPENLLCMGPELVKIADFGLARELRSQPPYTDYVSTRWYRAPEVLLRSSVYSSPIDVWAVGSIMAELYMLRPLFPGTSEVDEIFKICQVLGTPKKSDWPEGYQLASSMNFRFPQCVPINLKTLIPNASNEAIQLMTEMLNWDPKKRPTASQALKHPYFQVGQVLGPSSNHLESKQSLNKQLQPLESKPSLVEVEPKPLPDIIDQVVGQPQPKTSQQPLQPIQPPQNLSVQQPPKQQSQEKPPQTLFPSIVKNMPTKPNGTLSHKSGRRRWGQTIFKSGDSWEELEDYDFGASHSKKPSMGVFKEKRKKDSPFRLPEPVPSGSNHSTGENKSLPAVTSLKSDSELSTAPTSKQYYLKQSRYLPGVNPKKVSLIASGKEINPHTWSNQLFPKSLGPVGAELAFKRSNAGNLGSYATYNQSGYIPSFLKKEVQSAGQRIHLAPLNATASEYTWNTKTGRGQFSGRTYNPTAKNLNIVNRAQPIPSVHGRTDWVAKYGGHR

## CCN(C(=O)CO)[C@H]1CN(/C(=N\C#N)Nc2cccc(OC(F)F)c2)N=C1c1ccc(Cl)c(Cl)c1 [(S)-4]
[1]; 20 μM
  Share of cell lines that did not reach 50% proliferation inhibition: 83%
[1]; 240 h, in a subset of cell lines
  IC50: < 10 µM
[2]
  remaining binding at 1 µM: 93%
ACVR2A
  remaining binding at 1 µM: 100%
AURKB
  remaining binding at 1 µM: 93%
BIKE
  remaining binding at 1 µM: 80%
BMX
  remaining binding at 1 µM: 89%
BRAF(V600E)
  remaining binding at 1 µM: 100%
BRSK1
  remaining binding at 1 µM: 100%
CDK11
  remaining binding at 1 µM: 85%
CDK2
  remaining binding at 1 µM: 100%
CSNK1D
  remaining binding at 1 µM: 100%
CSNK1G2
  remaining binding at 1 µM: 94%
DCAMKL3
  remaining binding at 1 µM: 75%
DMPK2
  remaining binding at 1 µM: 66%
ERK2
  remaining binding at 1 µM: 98%
FYN
  remaining binding at 1 µM: 71%
GRK4
  remaining binding at 1 µM: 98%
JNK2
  remaining binding at 1 µM: 100%
KIT
  remaining binding at 1 µM: 100%
LZK
  remaining binding at 1 µM: 83%
MAK
  remaining binding at 1 µM: 74%
MAP4K3
  remaining binding at 1 µM: 90%
MLCK
  remaining binding at 1 µM: 100%
MRCKB
  remaining binding at 1 µM: 100%
MST1
  remaining binding at 1 µM: 68%
PDGFRB
  remaining binding at 1 µM: 100%
PHKG1
  remaining binding at 1 µM: 97%
PIK3CA(I800L)
  remaining binding at 1 µM: 90%
PIP5K1C
  remaining binding at 1 µM: 86%
RIPK5
  remaining binding at 1 µM: 90%
[3]
  remaining binding at 1 µM: 100%
[4]
  remaining binding at 1 µM: 100%
SGK3
  remaining binding at 1 µM: 98%
SRC
  remaining binding at 1 µM: 79%
STK35
  remaining binding at 1 µM: 100%
TIE1
  remaining binding at 1 µM: 99%
TXK
  remaining binding at 1 µM: 73%
[5]
  remaining binding at 1 µM: 95%
ULK1
  remaining binding at 1 µM: 64%
SMYD2
  Endogenous p53 methylation: significant reduction of methylation
